Assay results: patent US9758550B2, “Cobalamin acquisition protein and use thereof” (Woods Hole Oceanographic Institution, priority 2012, dated 2017)
Like-named read-outs stand apart in the source and are kept apart here.

How the values were obtained:
T. pseudonana = assay: Re-supply experiment, growth via in vivo fluorescence; format: cell-based, Thalassiosira pseudonana
Procedure: (§1) A. Re-supply Experiment: For both colimitation experiments (T. pseudonana and P. tricornutum), each remaining culture was split in four just after the protein harvest time point. For the T. pseudonana study, the cultures were re-supplied with either 1) nothing, 2) 100 pM B12, 3) 400 nM Fetotal, or 4) both 100 pM B12 and 400 nM Fe. For the P. tricornutum study, the cultures were re-supplied with either 1) nothing, 2) 100 pM B12, 3) 100 nM Fetotal, or 4) both 100 pM B12 and 100 nM Fe.
(§2) For both studies, each culture was monitored for growth via in vivo fluorescence.

P. tricornutum = tested on: P. tricornutum
Procedure: as §1, §2

P. tricornutum cells = assay: Cobalamin (57Co-B12) uptake rate in P. tricornutum cell lines overexpressing CBA1; format: cell-based, Phaeodactylum tricornutum; settings: CBA1 overexpression vs wild type and Urease-OE1; exponentially growing cells, B12-replete (100 pM B12), 24 hours
Procedure: B12 Uptake Rate Assessments: Inorganic ^57Co was removed from a carrier-free ^57Co-B12 stock solution (MP Biomedicals) via Chelex-100 (Price et al. (1988/1989) “Preparation and Chemistry of the Artificial Algal Culture Medium Aquil,” Biol Oceanogr 6: 443-461) and the remaining solution was used as a radiotracer in cultures of P. tricornutum. Strains (wild type, two cell lines overexpressing CBA1_48322 and one line overexpressing urease) were grown through three successive transfers into media as described above, with 100 pM B12 and 80 μg/mL zeocin added (zeocin not added to wild type). When the cells were in mid-exponential growth in the third transfer, each strain was used to inoculate (3%) three 28 mL polycarbonate tubes containing 20 mL of growth media with 100 pM B12 and 80 μg/mL zeocin and allowed to acclimate for 3 hours. […] B12 uptake was measured by assessing the percentage of added tracer that was taken up into the particulate fraction via gamma counting as previously described (Bertrand et al. (2007) supra) and assuming that total B12 concentrations were 100 pM for the period of uptake. Cell growth was monitored by fluorescence and then translated to cell number via calibration curves created during growth of the 3rd transfer. […]

C/C1=C2/[N-][C@H]([C@H](CC(N)=O)[C@@]2(C)CCC(=O)NC[C@H](C)OP(=O)([O-])O[C@H]2[C@@H](O)[C@@H](n3cnc4cc(C)c(C)cc43)O[C@@H]2CO)[C@]2(C)N=C(/C(C)=C3N=C(/C=C4N=C1[C@@H](CCC(N)=O)C\4(C)C)[C@@H](CCC(N)=O)[C@]\3(C)CC(N)=O)[C@@H](CCC(N)=O)[C@]2(C)CC(N)=O.[Co+2] (stereo in doubt) [cobalamin]
growth after re-supply (T. pseudonana; low cobalamin culture re-supplied with 100 pM B12): rescued the growth

iron
growth after re-supply (P. tricornutum; low cobalamin/low Fe culture, iron addition alone (100 nM Fe total)): rescued | growth after re-supply (P. tricornutum; low iron culture re-supplied with 100 nM Fe total): rescued the growth | growth after re-supply (T. pseudonana; low iron culture re-supplied with 400 nM Fe total): rescued the growth

B1: CBA1: cobalamin acquisition protein of P. tricornutum (isoform Pt48322), overexpressed as a YFP fusion in the native host (protein, listed as Phaeodactylum tricornutum)
chain: DEPPACLTSTADLSVDIFTDKVEPLFSQGWNVTYHNTYKIANNLFDNTTYLLYQCGSTPPADVVDNGNFNAVLEIPLSNVGLSQTPHIGFMEQLELVDEIAAFLTDTDFISSPCFLDEIAAGNVLTLVEPSEGVDAPATGNTALSAGTVAFVASFTQVPFDNTVNIQEYSELTNVAVFEWVKFFSVFFNKEHTANQVVEAAESRFDCVAQNAGAVQADNMPVKPVVLWAYYSDFCGGWDVAECPNYYCEFANACGAEIISSTEGNTTVCGAPYMTTEELVELGKDADHWIYPSSNWDTASETFGEQLQNMKAVQDQQVFDYQASGENAWFEQRYAEYYNVLADFCAVVGTTQPLTGRSWFRNVFTEPVGSLPDCSPTQSANILDDVHICFLPTTGGAAAGGGSGSGGSSAKAIAVGTAALAAGLLSLIHVLLF
modifications: YFP fusion
notes: cobalamin acquisition protein of P. tricornutum (isoform Pt48322), overexpressed as a YFP fusion in the native host
enhancement of cell specific radiolabeled cobalamin uptake rates (P. tricornutum cells): 2 to 3 fold
